Results: PubChem BioAssay AID2060907 (Molecular Pharmacology Branch, DTP, NCI, 2025)
pIC50: −log10 of the molar value. “And” between values parts separate entries of the source, which are not always exact repeats. Identical values can stand only once. Values belong to the compound of their own block, whether it stands above or below them.

Test system: 388556-164-R-J1-PDC complex spheroid viability
Test: Anticancer human tumor 388556-164-R-J1-PDC patient-derived colon adenocarcinoma cell line growth inhibition [RAS]
Settings: for viability, T/C: stronger effect = lower value
Method in brief: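 Tumour cells grown as complex spheroids with HUVEC endothelial cells and mesenchymal stem cells, treated with RAS pathway inhibitor combinations. Each agent spans half-log steps from near clinical Cmax, or 10 microM where Cmax is unknown.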

[1] = curve of first compound, second compound 0.000949 µM
[2] = curve of first compound, second compound 0.003 µM
[3] = curve of first compound, second compound 0.00949 µM
[4] = curve of first compound, second compound 0.03 µM
[5] = curve of first compound, second compound 0.0949 µM
[6] = curve of first compound, second compound 0.3 µM
[7] = second compound 0.000949 µM, first compound 0.0316 µM
[8] = second compound 0.000949 µM, first compound 0.1 µM
[9] = second compound 0.000949 µM, first compound 0.316 µM
[10] = second compound 0.000949 µM, first compound 1 µM
[11] = second compound 0.003 µM, first compound 0.0316 µM
[12] = second compound 0.003 µM, first compound 0.1 µM
[13] = second compound 0.003 µM, first compound 0.316 µM
[14] = second compound 0.003 µM, first compound 1 µM
[15] = second compound 0.00949 µM, first compound 0.0316 µM
[16] = second compound 0.00949 µM, first compound 0.1 µM
[17] = second compound 0.00949 µM, first compound 0.316 µM
[18] = second compound 0.00949 µM, first compound 1 µM
[19] = second compound 0.03 µM, first compound 0.0316 µM
[20] = second compound 0.03 µM, first compound 0.1 µM
[21] = second compound 0.03 µM, first compound 0.316 µM
[22] = second compound 0.03 µM, first compound 1 µM
[23] = second compound 0.0949 µM, first compound 0.0316 µM
[24] = second compound 0.0949 µM, first compound 0.1 µM
[25] = second compound 0.0949 µM, first compound 0.316 µM
[26] = second compound 0.0949 µM, first compound 1 µM
[27] = second compound 0.3 µM, first compound 0.0316 µM
[28] = second compound 0.3 µM, first compound 0.1 µM
[29] = second compound 0.3 µM, first compound 0.316 µM
[30] = second compound 0.3 µM, first compound 1 µM
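Further: spheroids exposed to compound for 7 days before readout.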
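Wherever viability, T/C is given: 100% = DMSO vehicle control luminescence.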

pIC50 (curve of first compound, second compound 0.0316 µM): < 6.00
pIC50 (curve of first compound, second compound 0.1 µM): < 6.00
pIC50 (curve of first compound, second compound 0.316 µM): < 6.00
pIC50 (curve of first compound, second compound 1 µM): < 6.00
pIC50 (curve of first compound, second compound 3.16 µM): < 6.00
pIC50 (curve of first compound, second compound 10 µM): 6.68
Structure (SMILES): CCN1CCN(Cc2ccc(Nc3ncc(F)c(-c4cc(F)c5nc(C)n(C(C)C)c5c4)n3)nc2)CC1 + C#Cc1c(F)ccc2cc(O)cc(-c3ncc4c(N5CC6CCC(C5)N6)nc(OCC56CCCN5CC(F)C6)nc4c3F)c12
viability, T/C (second compound 0.0316 µM, first compound 0.00316 µM): 106%
viability, T/C (second compound 0.0316 µM, first compound 0.01 µM): 106%
viability, T/C (second compound 0.0316 µM, first compound 0.0316 µM): 106%
viability, T/C (second compound 0.0316 µM, first compound 0.1 µM): 103%
viability, T/C (second compound 0.0316 µM, first compound 0.316 µM): 92.3%
viability, T/C (second compound 0.0316 µM, first compound 1 µM): 103%
viability, T/C (second compound 0.1 µM, first compound 0.00316 µM): 110%
viability, T/C (second compound 0.1 µM, first compound 0.01 µM): 100%
viability, T/C (second compound 0.1 µM, first compound 0.0316 µM): 94.8%
viability, T/C (second compound 0.1 µM, first compound 0.1 µM): 89.2%
viability, T/C (second compound 0.1 µM, first compound 0.316 µM): 91.6%
viability, T/C (second compound 0.1 µM, first compound 1 µM): 99.5%
viability, T/C (second compound 0.316 µM, first compound 0.00316 µM): 100%
viability, T/C (second compound 0.316 µM, first compound 0.01 µM): 99.2%
viability, T/C (second compound 0.316 µM, first compound 0.0316 µM): 81.1%
viability, T/C (second compound 0.316 µM, first compound 0.1 µM): 88%
viability, T/C (second compound 0.316 µM, first compound 0.316 µM): 93.3%
viability, T/C (second compound 0.316 µM, first compound 1 µM): 77.4%
viability, T/C (second compound 1 µM, first compound 0.00316 µM): 92.5%
viability, T/C (second compound 1 µM, first compound 0.01 µM): 96.3%
viability, T/C (second compound 1 µM, first compound 0.0316 µM): 73.2%
viability, T/C (second compound 1 µM, first compound 0.1 µM): 82.5%
viability, T/C (second compound 1 µM, first compound 0.316 µM): 85.6%
viability, T/C (second compound 1 µM, first compound 1 µM): 61.6%
viability, T/C (second compound 3.16 µM, first compound 0.00316 µM): 78.3%
viability, T/C (second compound 3.16 µM, first compound 0.01 µM): 73.9%
viability, T/C (second compound 3.16 µM, first compound 0.0316 µM): 76.3%
viability, T/C (second compound 3.16 µM, first compound 0.1 µM): 74.3%
viability, T/C (second compound 3.16 µM, first compound 0.316 µM): 71%
viability, T/C (second compound 3.16 µM, first compound 1 µM): 54.9%
viability, T/C (second compound 10 µM, first compound 0.00316 µM): 76.8%
viability, T/C (second compound 10 µM, first compound 0.01 µM): 67.8%
viability, T/C (second compound 10 µM, first compound 0.0316 µM): 72.7%
viability, T/C (second compound 10 µM, first compound 0.1 µM): 57.7%
viability, T/C (second compound 10 µM, first compound 0.316 µM): 45.5%
viability, T/C (second compound 10 µM, first compound 1 µM): 37.4%

pIC50 [1]: < 5.00
pIC50 [2]: < 5.00
pIC50 [3]: < 5.00
pIC50 [4]: < 5.00
pIC50 [5]: < 5.00
pIC50 [6]: < 5.00
Structure (SMILES): CC(=O)OC12COC1CC(O)C1(C)C(=O)C(O)C3=C(C)C(OC(=O)C(O)C(NC(=O)OC(C)(C)C)c4ccccc4)CC(O)(C(OC(=O)c4ccccc4)C21)C3(C)C (stereo not drawn) + CCn1c(-c2cccnc2C(C)OC)c2c3cc(ccc31)N1CCOC(CC(NC(=O)C(C(C)C)N(C)C(=O)C3(F)CCN(C(=O)C#CC(C)(C)N(C)C)CC3)C(=O)N3CCCC(N3)C(=O)OCC(C)(C)C2)C1
viability, T/C [7]: 86%
viability, T/C [8]: 83.4%
viability, T/C [9]: 70.5%
viability, T/C [10]: 73.7%
viability, T/C (second compound 0.000949 µM, first compound 3.16 µM): 80.7%
viability, T/C (second compound 0.000949 µM, first compound 10 µM): 74.7%
viability, T/C [11]: 92.2%
viability, T/C [12]: 78.8%
viability, T/C [13]: 79%
viability, T/C [14]: 76%
viability, T/C (second compound 0.003 µM, first compound 3.16 µM): 75.1%
viability, T/C (second compound 0.003 µM, first compound 10 µM): 74.4%
viability, T/C [15]: 86%
viability, T/C [16]: 83.4%
viability, T/C [17]: 76.6%
viability, T/C [18]: 75%
viability, T/C (second compound 0.00949 µM, first compound 3.16 µM): 79.4%
viability, T/C (second compound 0.00949 µM, first compound 10 µM): 71%
viability, T/C [19]: 95.5%
viability, T/C [20]: 81.7%
viability, T/C [21]: 70.7%
viability, T/C [22]: 71.7%
viability, T/C (second compound 0.03 µM, first compound 3.16 µM): 79.1%
viability, T/C (second compound 0.03 µM, first compound 10 µM): 74.2%
viability, T/C [23]: 80.7%
viability, T/C [24]: 79.2%
viability, T/C [25]: 81.8%
viability, T/C [26]: 76.3%
viability, T/C (second compound 0.0949 µM, first compound 3.16 µM): 78%
viability, T/C (second compound 0.0949 µM, first compound 10 µM): 69.6%
viability, T/C [27]: 79.7%
viability, T/C [28]: 70.3%
viability, T/C [29]: 71.3%
viability, T/C [30]: 73.8%
viability, T/C (second compound 0.3 µM, first compound 3.16 µM): 71.4%
viability, T/C (second compound 0.3 µM, first compound 10 µM): 69%

pIC50 (curve of compound): < 5.00
Structure (SMILES): C[C@@H](NC(=O)c1ncnc(N)c1Cl)c1ncc(C(=O)Nc2cc(C(F)(F)F)c(Cl)cn2)s1
viability, T/C (compound 0.0316 µM): 106% [middle of 4 runs]
viability, T/C (compound 0.1 µM): 112% [middle of 4 runs]
viability, T/C (compound 0.316 µM): 121% [middle of 4 runs]
viability, T/C (compound 1 µM): 118% and 115% (2×) and 132%
viability, T/C (compound 3.16 µM): 116% [middle of 4 runs]
viability, T/C (compound 10 µM): 97.4% [middle of 4 runs]

pIC50 [1]: < 6.00
pIC50 [2]: < 6.00
pIC50 [3]: 6.06
pIC50 [4]: 6.66
pIC50 [5]: > 8.50
pIC50 [6]: > 8.50
Structure (SMILES): CCN1CCN(Cc2ccc(Nc3ncc(F)c(-c4cc(F)c5nc(C)n(C(C)C)c5c4)n3)nc2)CC1 + CCn1c(-c2cc(N3CCN(C)CC3)cnc2C(C)OC)c2c3cc(ccc31)-c1csc(n1)CC(NC(=O)C1CC1C)C(=O)N1CCCC(N1)C(=O)OCC(C)(C)C2
viability, T/C (second compound 0.000949 µM, first compound 0.00316 µM): 97.5%
viability, T/C (second compound 0.000949 µM, first compound 0.01 µM): 92.2%
viability, T/C [7]: 93.1%
viability, T/C [8]: 79.4%
viability, T/C [9]: 75%
viability, T/C [10]: 75.2%
viability, T/C (second compound 0.003 µM, first compound 0.00316 µM): 96%
viability, T/C (second compound 0.003 µM, first compound 0.01 µM): 96.8%
viability, T/C [11]: 76.6%
viability, T/C [12]: 71.3%
viability, T/C [13]: 66.2%
viability, T/C [14]: 58.7%
viability, T/C (second compound 0.00949 µM, first compound 0.00316 µM): 79.8%
viability, T/C (second compound 0.00949 µM, first compound 0.01 µM): 78.6%
viability, T/C [15]: 68.5%
viability, T/C [16]: 58.1%
viability, T/C [17]: 62.7%
viability, T/C [18]: 46.8%
viability, T/C (second compound 0.03 µM, first compound 0.00316 µM): 59%
viability, T/C (second compound 0.03 µM, first compound 0.01 µM): 64.4%
viability, T/C [19]: 65.9%
viability, T/C [20]: 57.9%
viability, T/C [21]: 46.2%
viability, T/C [22]: 38.7%
viability, T/C (second compound 0.0949 µM, first compound 0.00316 µM): 45.9%
viability, T/C (second compound 0.0949 µM, first compound 0.01 µM): 41.2%
viability, T/C [23]: 35.4%
viability, T/C [24]: 30.8%
viability, T/C [25]: 34%
viability, T/C [26]: 31.4%
viability, T/C (second compound 0.3 µM, first compound 0.00316 µM): 33.2%
viability, T/C (second compound 0.3 µM, first compound 0.01 µM): 32.3%
viability, T/C [27]: 31.9%
viability, T/C [28]: 30.8%
viability, T/C [29]: 29.5%
viability, T/C [30]: 31.5%
